Reference: US10272095B2 (GlaxoSmithKline Intellectual Property Development Limited, priority 2015, dated 2019)
Where a name gives a salt, the structure may show the parent alone.

Test system: NQO1 specific enzyme activity in BEAS-2B cells
Experiment: BEAS-2B NQO1 MTT assay
Assay type: cell-based
Conditions: Homo sapiens, BEAS-2B, 48 h, NQO1 specific enzyme activity induction in BEAS-2B cells, 48 hours; read-out: EC50
Description: NAD(P)H:quinone oxidoreductase 1 (NQO1), also called DT diaphorase, is a homodimeric FAD-containing enzyme that catalyzes obligatory NAD(P)H-dependent two-electron reductions of quinones and protects cells against the toxic and neoplastic effects of free radicals and reactive oxygen species arising from one-electron reductions. The transcription of NQO1 is finely regulated by NRF2, and thus NQO1 activity is a good marker for NRF2 activation. On day one, frozen BEAS-2B cells (ATCC) are thawed in a water bath, counted, and re-suspended at a concentration of 250,000 cells/mL. Fifty microliters of cells are plated in 384 well black clear-bottomed plates. Plates are incubated at 37° C., 5% CO2 overnight. On day two, plates are centrifuged and 50 nL of compound or controls are added to the cells. Plates are then incubated at 37° C., 5% CO2 for 48 hours. On day four, medium is aspirated from the plate and crude cell lysates are made by adding 13 uL of 1× Cell Signaling Technologies lysis buffer with 1 Complete, Mini, EDTA-free Protease Inhibitor Tablet (Roche) for each 10 mL of lysis buffer. After lysis plates are incubated for 20 minutes at room temperature. Two microliters of lysate are removed for use in Cell Titer Glo assay (Promega) and MTT cocktail is prepared (Prochaska et. al. 1998) for measurement of NQO1 activity. Fifty microliters of MTT cocktail is added to each well, plate is centrifuged, and analyzed on an Envision plate reader (Perkin Elmer) using Absorbance 570 nm label for 30 minutes. Product formation is measured kinetically and the pEC50 of NQO1 specific activity induction is calculated by plotting the change in absorbance (Delta OD/min) versus the log of compound concentration followed by 3-parameter fitting.
EC50s<1 nM (+++++), EC50s 10 nM-1 nM (++++), EC50s 10-100 nM (+++), EC50s 100 nM-1 uM (++), EC50s 1 uM-10 uM (+), EC50s>10 uM (−), or were not determined (ND).

SMILES	EC50
Cc1c([C@H](c2ccc3c(c2)[C@H](N2Cc4ncccc4OC(C)(C)C2)CC3)C(C)(C)C(=O)O)ccc2c1nnn2C (racemic) [Example 67, rac-(R)-3-(1,4-Dimethyl-1H-benzo[d][1,2,3]triazol-5-yl)-3-(rac-(S)-3-(2,2-dimethyl-2,3-dihydropyrido[2,34][1,4]oxazepin-4(5H)-yl)-2,3-dihydro-1H-inden-5-yl)-2,2-dimethylpropanoic Acid, Trifluoroacetic Acid Salt]	< 0.001 µM
Cc1c([C@H](c2ccc3c(c2)[C@@H](N2Cc4ncccc4OC(C)(C)C2)CC3)C(C)(C)C(=O)O)ccc2c1nnn2C (racemic) [Example 68, rac-(R)-3-(1,4-Dimethyl-1H-benzo[d][1,2,3]triazol-5-yl)-3-(rac-(R)-3-(2,2-dimethyl-2,3-dihydropyrido[2,3-f][1,4]oxazepin-4(5H)-yl)-2,3-dihydro-1H-inden-5-yl)-2,2-dimethylpropanoic acid]	0.01 to 0.1 µM
Cc1c([C@H](c2ccc3c(c2)[C@@H](N2Cc4ccncc4OC(C)(C)C2)CC3)C(C)(C)C(=O)O)ccc2c1nnn2C (racemic) [Example 69, rac-(R)-3-(1,4--1H-benzo[d][1,2,3]triazol-5-yl)-3-(rac-(R)-3-(2,2-dimethyl-2,3-dihydropyrido[4,3-f][1,4]oxazepin-4(5H)-yl)-2,3-dihydro-1H-inden-5-yl)-2,2-dimethylpropanoic acid, Trifluoroacetic acid salt]	< 0.001 µM
Cc1c([C@H](c2ccc3c(c2)[C@H](N2Cc4ccncc4OC(C)(C)C2)CC3)C(C)(C)C(=O)O)ccc2c1nnn2C (racemic) [Example 70, rac-(R)-3-(1,4-Dimethyl-1H-benzo[d][1,2,3]triazol-5-yl)-3-(rac-(S)-3-(2,2-dimethyl-2,3-dihydropyrido[4,3-f][1,4]oxazepin-4(5H)-yl)-2,3-dihydro-1H-inden-5-yl)-2,2-dimethylpropanoic acid, Trifluoroacetic acid salt]	0.001 to 0.01 µM
CC[C@@H]1CN([C@@H]2CCc3ccc([C@@H](c4ccc5c(nnn5C)c4C)C(C)(C)C(=O)O)cc32)Cc2cnccc2O1 (relative stereo) [Example 71, rel-(S)-3-(1,4-Dimethyl-1H-benzo[d][1,2,3]triazol-5-yl)-3-(rel-(R)-3-((R)-2-ethyl-2,3-dihydropyrido[3,4-f][1,4]oxazepin-4(5H)-yl)-2,3-dihydro-1H-inden-5-yl)-2,2-dimethylpropanoic acid]	0.001 to 0.01 µM
CC[C@@H]1CN([C@@H]2CCc3ccc(C(c4ccc5c(nnn5C)c4C)C(C)(C)C(=O)O)cc32)Cc2cnccc2O1 (relative stereo) [Example 75, rel-(S)-3-(1,4-Dimethyl-1H-benzo[d][1,2,3]triazol-5-yl)-3-(rel-(R)-3-((R)-2-ethyl-2,3-dihydropyrido[3,4-f][1,4]oxazepin-4(5H)-yl)-2,3-dihydro-1H-inden-5-yl)-2,2-dimethylpropanoic acid]	0.01 to 0.1 µM
CC[C@@H]1CN([C@H]2CCc3ccc([C@H](c4ccc5c(nnn5C)c4C)C(C)(C)C(=O)O)cc32)Cc2cnccc2O1 (relative stereo) [Example 76, rel-(R)-3-(1,4-Dimethyl-1H-benzo[d][1,2,3]triazol-5-yl)-3-(rel-(S)-3-((R)-2-ethyl-2,3-dihydropyrido[3,4-f][1,4]oxazepin-4(5H)-yl)-2,3-dihydro-1H-inden-5-yl)-2,2-dimethylpropanoic acid]	1 to 10 µM
CC[C@@H]1CN([C@H]2CCc3ccc([C@H](CC(=O)O)c4ccc5c(nnn5C)c4C)cc32)Cc2ccccc2O1 (relative stereo) [Example 81, rel-(S)-3-(1,4-Dimethyl-1H-benzo[d][1,2,3]triazol-5-yl)-3-(rel-(S)-3-((R)-2-ethyl-2,3-dihydrobenzo[f][1,4]oxazepin-4(5H)-yl)-2,3-dihydro-1H-inden-5-yl)propanoic Acid]	0.01 to 0.1 µM
CC[C@@H]1CN([C@@H]2CCc3ccc([C@H](CC(=O)O)c4ccc5c(nnn5C)c4C)cc32)Cc2ccccc2O1 (relative stereo) [Example 82, rel-(S)-3-(1,4-Dimethyl-1H-benzo[d][1,2,3]triazol-5-yl)-3-(rel-(R)-3-((R)-2-ethyl-2,3-dihydrobenzo[f][1,4]oxazepin-4(5H)-yl)-2,3-dihydro-1H-inden-5-yl)propanoic acid]	0.01 to 0.1 µM
CC[C@@H]1CN([C@@H]2CCc3ccc(C(CC(=O)O)c4ccc5c(nnn5C)c4C)cc32)Cc2ccccc2O1 (relative stereo) [Example 84, rel-(R)-3-(1,4-Dimethyl-1H-benzo[d][1,2,3]triazol-5-yl)-3-(rel-(R)-3-((R)-2-ethyl-2,3-dihydrobenzo[f][1,4]oxazepin-4(5H)-yl)-2,3-dihydro-1H-inden-5-yl)propanoic acid]	1 to 10 µM
Cc1c([C@@H](CC(=O)O)c2ccc3c(c2)[C@H](N2Cc4ccccc4OC(C)(C)C2)CC3)ccc2c1nnn2C (single isomer, unassigned) [Example 41, 3-(1,4-Dimethyl-1H-benzo[d][1,2,3]triazol-5-yl)-3-(3-(2,2-dimethyl-2,3-dihydrobenzo[f][1,4]oxazepin-4(5H)-yl)-2,3-dihydro-1H-inden-5-yl)propanoic Acid, Formic Acid Salt]	0.001 to 0.01 µM
Cc1c([C@H](c2ccc3c(c2)[C@H](N2Cc4ccccc4OC(C)(C)C2)CC3)C(C)(C)C(=O)O)ccc2c1nnn2C (stereo in doubt) [Example 77, rel-(S)-3-(1,4-Dimethyl-1H-benzo[d][1,2,3]triazol-5-yl)-3-(rel-(R)-3-(2,2-dimethyl-2,3-dihydrobenzo[f][1,4]oxazepin-4(5H)-yl)-2,3-dihydro-1H-inden-5-yl)-2,2-dimethylpropanoic Acid]	< 0.001 µM
Cc1c([C@H](c2ccc3c(c2)[C@@H](N2Cc4ccccc4OC(C)(C)C2)CC3)C(C)(C)C(=O)O)ccc2c1nnn2C (stereo in doubt) [Example 78, rel-(S)-3-(1,4-Dimethyl-1H-benzo[d][1,2,3]triazol-5-yl)-3-(rel-(S)-3-(2,2-dimethyl-2,3-dihydrobenzo[f][1,4]oxazepin-4(5H)-yl)-2,3-dihydro-1H-inden-5-yl)-2,2-dimethylpropanoic acid]	0.001 to 0.01 µM
Cc1c([C@@H](c2ccc3c(c2)[C@H](N2Cc4ccccc4OC(C)(C)C2)CC3)C(C)(C)C(=O)O)ccc2c1nnn2C (stereo in doubt) [Example 79, rel-(R)-3-(1,4-Dimethyl-1H-benzo[d][1,2,3]triazol-5-yl)-3-(rel-(R)-3(2,2-dimethyl-2,3-dihydrobenzo[f][1,4]oxazepin-4(5H)-yl)-2,3-dihydro-1H-inden-5-yl)-2,2-dimethylpropanoic acid]	0.001 to 0.01 µM
Cc1c([C@@H](c2ccc3c(c2)[C@@H](N2Cc4ccccc4OC(C)(C)C2)CC3)C(C)(C)C(=O)O)ccc2c1nnn2C (stereo in doubt) [Example 80, rel-(R)-3-(1,4-Dimethyl-1H-benzo[d][1,2,3]triazol-5-yl)-3-(rel-(S)-3-(2,2-dimethyl-2,3-dihydrobenzo[f][1,4]oxazepin-4(5H)-yl)-2,3-dihydro-1H-inden-5-yl)-2,2-dimethylpropanoic acid]	0.1 to 1 µM
Cc1c(C(CC(=O)O)c2ccc3c(c2)[C@@H]2[C@@H](CC(=O)N2CC2CCCCC2)C3)ccc2c1nnn2C (stereo partly drawn) [Example 1, 3-[(3aR,8bS)-1-(cyclohexylmethyl)-2-oxo-1H,2H,3H,3aH,4H,8bH-indeno[1,2-b]pyrrol-7-yl]-3-(1,4-dimethyl-1H-1,2,3-benzotriazol-5-yl)propanoic Acid]	0.1 to 1 µM
CCC1CCC(CN2C(=O)CC3Cc4ccc(C(CC(=O)O)c5ccc6c(nnn6C)c5C)cc4C32)CC1 (stereo not shown) [Example 2, 3-(1,4-Dimethyl-1H-1,2,3-benzotriazol-5-yl)-3-{1-[(4-ethylcyclohexyl)methyl]-2-oxo-1H,2H,3H,3aH,4H,8bH-indeno[1,2-b]pyrrol-7-yl}propanoic Acid]	0.01 to 0.1 µM

Same assay, conditions: NQO1 specific enzyme activity induction in BEAS-2B cells, 48 hours; read-out: EC50

SMILES	EC50
CC[C@@H]1CN([C@H]2CCc3ccc([C@@H](c4ccc5c(nnn5C)c4C)C(C)(C)C(=O)O)cc32)Cc2cnccc2O1 (relative stereo) [Example 72, rel-(S)-3-(1,4-Dimethyl-1H-benzo[d][1,2,3]triazol-5-yl)-3-(rel-(S)-3-((R)-2-ethyl-2,3-dihydropyrido[3,4-f][1,4]oxazepin-4(5H)-yl)-2,3-dihydro-1H-inden-5-yl)-2,2-dimethylpropanoic acid]	0.001 to 0.01 µM
CC[C@@H]1CN([C@H]2CCc3ccc([C@@H](c4ccc5c(nnn5C)c4C)C(C)(C)C(=O)O)cc32)Cc2cnccc2O1 (relative stereo) [Example 85, rel-(S)-3-(1,4-Dimethyl-1H-benzo[d][1,2,3]triazol-5-yl)-3-(rel-(S)-3-((R)-2-ethyl-2,3-dihydropyrido[3,4-f][1,4]oxazepin-4(5H)-yl)-2,3-dihydro-1H-inden-5-yl)-2,2-dimethylpropanoic Acid]	0.01 to 0.1 µM
